Article PMC5615911 (Toxicology Reports, 2016)
Where two headings read alike, the source gives them in different places.

How the values were obtained:
[1] = In vitro metabolism, rat liver microsomes; type: in vitro ADME, Sprague-Dawley rat; conditions: 60 min, with NADPH, positive control
[2] = In vitro metabolism, human liver microsomes; type: in vitro ADME; conditions: 60 min, with NADPH, positive control
[3] = system: S. typhimurium strains TA98, TA100, TA1535, TA1537; conditions: up to 5000 μg/plate; cited from earlier work
TA100 = conditions: pre-incubation, presence of metabolic activation; cited from earlier work
TA1535 = conditions: plate incorporation, absence of metabolic activation; cited from earlier work
[4] = male, cited from earlier work
CHO-WBL cells = conditions: ±metabolic activation, up to 5000 μg/mL; cited from earlier work
[5] = system: femoral bone marrow polychromatic erythrocytes; conditions: ip, cited from earlier work
[6] = diet, 92 or 93 days; cited from earlier work
CYP3A4 [7] = biological target: T1, CYP3A4 (Homo sapiens, UniProt P08684); conditions: ref Senomyx, unpublished results; cited from earlier work
T1 sequence (P08684 whole entry): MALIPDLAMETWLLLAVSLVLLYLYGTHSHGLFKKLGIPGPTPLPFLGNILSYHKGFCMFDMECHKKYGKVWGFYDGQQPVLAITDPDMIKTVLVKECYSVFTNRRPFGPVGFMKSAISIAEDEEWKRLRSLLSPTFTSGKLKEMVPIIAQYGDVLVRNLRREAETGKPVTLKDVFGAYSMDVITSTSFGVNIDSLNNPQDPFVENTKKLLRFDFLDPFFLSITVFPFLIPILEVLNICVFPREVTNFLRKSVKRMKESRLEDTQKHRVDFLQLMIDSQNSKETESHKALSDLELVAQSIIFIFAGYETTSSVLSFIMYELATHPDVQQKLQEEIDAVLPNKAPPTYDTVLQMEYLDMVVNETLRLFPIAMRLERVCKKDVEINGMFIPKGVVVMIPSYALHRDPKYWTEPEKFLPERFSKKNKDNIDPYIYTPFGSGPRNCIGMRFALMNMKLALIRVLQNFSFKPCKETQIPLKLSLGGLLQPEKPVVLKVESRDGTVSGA

CYP3A4 [8] = biological target: T1, CYP3A4; conditions: ref Senomyx, unpublished results; cited from earlier work; remark: listed apart in the source
[9] = system: GPCRs, ion channels, nuclear receptors, transporters; conditions: 10 μM; ref Senomyx, unpublished results; cited from earlier work
[10] = ref Chi, unpublished results, cited from earlier work
[11] = 28 days oral gavage, highest dose evaluated; ref Senomyx, unpublished results; cited from earlier work
[12] = female, oral gavage 10 mg/kg bw
[13] = female, oral gavage 30 mg/kg bw
[14] = female, oral gavage 100 mg/kg bw

C[C@]12CC[C@H]3[C@@H](CCC4=CC(=O)CC[C@@]43C)[C@@H]1CC[C@@H]2O [testosterone, reference compound]
Turnover [1]: greater than 85%
Turnover [2]: greater than 85%

COc1ccc(CNC(=O)C(=O)NCCc2ccccn2)c(OC)c1 [S336, N^1-(2,4-dimethoxybenzyl)-N^2-(2-(pyridin-2-yl)ethyl)oxalamide]
Mutagenicity, conclusion [3]: non-mutagenic
Reverse mutation result (TA100): weakly positive
Reverse mutation result (TA1535): weakly positive
AUC0-last ([4]; iv 0.1 mg/kg bw): 0.065 ± 0.0013 µg·h/mL
Cmax ([4]; iv 0.1 mg/kg bw): 0.207 ± 0.0258 µg/mL
Tmax ([4]; iv 0.1 mg/kg bw): 1.8 min
t1/2 ([4]; iv 0.1 mg/kg bw): 25.2 min
% F ([4]; oral gavage 10 mg/kg bw): 89.4%
AUC0-last ([4]; oral gavage 10 mg/kg bw): 5.809 ± 0.444 µg·h/mL
Cmax ([4]; oral gavage 10 mg/kg bw): 7.027 ± 0.925 µg/mL
Tmax ([4]; oral gavage 10 mg/kg bw): 15 min
t1/2 ([4]; oral gavage 10 mg/kg bw): 41.4 min
% F ([4]; oral gavage 30 mg/kg bw): 114.2%
AUC0-last ([4]; oral gavage 30 mg/kg bw): 22.26 ± 0.727 µg·h/mL
Cmax ([4]; oral gavage 30 mg/kg bw): 23.43 ± 1.436 µg/mL
Tmax ([4]; oral gavage 30 mg/kg bw): 11.4 min
t1/2 ([4]; oral gavage 30 mg/kg bw): 42.6 min
% F ([4]; oral gavage 100 mg/kg bw): 134.6%
AUC0-last ([4]; oral gavage 100 mg/kg bw): 87.49 ± 13.35 µg·h/mL
Cmax ([4]; oral gavage 100 mg/kg bw): 36.27 ± 6.004 µg/mL
Tmax ([4]; oral gavage 100 mg/kg bw): 15 min
t1/2 ([4]; oral gavage 100 mg/kg bw): 58.8 min
Fold increase in AUClast for 10-fold increase in oral dose [4]: 15.1 fold
Clastogenicity (CHO-WBL cells): non-clastogenic
Micronucleated polychromatic erythrocytes vs negative control ([5]; up to 800 mg/kg bw, 24, 36, 48 h): no statistically significant differences
Maximum tolerated dose [5]: 800 mg/kg bw
NOEL [6]: at least 100 mg/kg bw/day

COc1cccc(CNC(=O)C(=O)NCCc2ccccn2)c1OC [S5456, N^1-(2,3-dimethoxybenzyl)-N^2-(2-(pyridin-2-yl)ethyl)oxalamide]
% inhibition at 10 μM (CYP3A4 [7]): 51%
% inhibition at 10 μM, any CYP isozyme of the panel (CYP3A4 [8]): < 50%
Significant off-target activities [9]: No other significant off-target activities
AUC0-last ([10]; female, iv 1.0 mg/kg bw): 0.817 ± 0.186 µg·h/mL
Cmax ([10]; female, iv 1.0 mg/kg bw): 2.398 ± 0.391 µg/mL
Tmax ([10]; female, iv 1.0 mg/kg bw): 1.8 min
t1/2 ([10]; female, iv 1.0 mg/kg bw): 19.2 min
% F [10, 12]: 51.4%
AUC0-last [10, 12]: 4.201 ± 1.013 µg·h/mL
Cmax [10, 12]: 3.258 ± 1.087 µg/mL
Tmax [10, 12]: 15 min
t1/2 [10, 12]: 72 min
% F [10, 13]: 108.6%
AUC0-last [10, 13]: 26.61 ± 7.306 µg·h/mL
Cmax [10, 13]: 10.98 ± 1.5 µg/mL
Tmax [10, 13]: 19.8 min
t1/2 [10, 13]: 95.4 min
% F [10, 14]: 250.2%
AUC0-last [10, 14]: 204.4 ± 44.54 µg·h/mL
Cmax [10, 14]: 34.67 ± 4.196 µg/mL
Tmax [10, 14]: 55.2 min
t1/2 [10, 14]: 175 min
Fold increase in AUClast for 10-fold increase in oral dose ([10]; female): 48.7 fold
AUC0-last ([10]; male, iv 1.0 mg/kg bw): 0.757 ± 0.112 µg·h/mL
Cmax ([10]; male, iv 1.0 mg/kg bw): 2.633 ± 0.363 µg/mL
Tmax ([10]; male, iv 1.0 mg/kg bw): 1.8 min
t1/2 ([10]; male, iv 1.0 mg/kg bw): 19.2 min
% F ([10]; male, oral gavage 10 mg/kg bw): 39.6%
AUC0-last ([10]; male, oral gavage 10 mg/kg bw): 3.001 ± 0.498 µg·h/mL
Cmax ([10]; male, oral gavage 10 mg/kg bw): 3.12 ± 0.787 µg/mL
Tmax ([10]; male, oral gavage 10 mg/kg bw): 15 min
t1/2 ([10]; male, oral gavage 10 mg/kg bw): 57 min
% F ([10]; male, oral gavage 30 mg/kg bw): 42.0%
AUC0-last ([10]; male, oral gavage 30 mg/kg bw): 9.535 ± 4.19 µg·h/mL
Cmax ([10]; male, oral gavage 30 mg/kg bw): 7.643 ± 2.404 µg/mL
Tmax ([10]; male, oral gavage 30 mg/kg bw): 18.6 min
t1/2 ([10]; male, oral gavage 30 mg/kg bw): 65.4 min
% F ([10]; male, oral gavage 100 mg/kg bw): 73.9%
AUC0-last ([10]; male, oral gavage 100 mg/kg bw): 55.95 ± 19.82 µg·h/mL
Cmax ([10]; male, oral gavage 100 mg/kg bw): 33.07 ± 14.55 µg/mL
Tmax ([10]; male, oral gavage 100 mg/kg bw): 15 min
t1/2 ([10]; male, oral gavage 100 mg/kg bw): 81 min
Fold increase in AUClast for 10-fold increase in oral dose ([10]; male): 18.6 fold
NOEL [11]: 140 mg/kg bw/day
